Assay results reported in US10301664B2, “Repurposing non-antimicrobial drugs and clinical molecules to treat bacterial infections” (Purdue Research Foundation, priority 2015, dated 2019).
Where two headings read alike, the source gives them in different places.

Tests used:
[1] = test system: Methicillin resistant S. aureus (MRSA); experiment: MIC and MBC against methicillin resistant S. aureus clinical isolates (CLSI); assay type: cell-based; conditions: Staphylococcus aureus; for MBC: read-out: MBC; for MIC: read-out: MIC
[2] = test system: Vancomycin-intermediate S. aureus (VISA); experiment: MIC and MBC against vancomycin-intermediate S. aureus isolates (CLSI); assay type: cell-based; conditions: Staphylococcus aureus; for MBC: read-out: MBC; for MIC: read-out: MIC
[3] = test system: vancomycin resistant E. faecium ATCC 700221 (VRE); experiment: Library hits: MIC/MBC against VRE; assay type: cell-based; conditions: VRE
MRSA USA300 = experiment: Library hits: MIC/MBC against MRSA; assay type: cell-based, Staphylococcus aureus; conditions: Staphylococcus aureus
[4] = test system: Vancomycin-resistant S. aureus (VRSA); experiment: MIC and MBC against vancomycin-resistant S. aureus clinical isolates (CLSI); assay type: cell-based; conditions: Staphylococcus aureus, VRSA; for MBC: read-out: MBC; for MIC: read-out: MIC
[5] = test system: clinical isolates of S. aureus; experiment: MIC90 over clinical isolates of S. aureus; assay type: cell-based; conditions: Staphylococcus aureus, Table 1, read-out: MIC90 (MIC at which 90% of clinical isolates of S. aureus were inhibited)
[6] = test system: E. fecalis ATCC 51229 (VRE); experiment: MIC and MBC against E. fecalis VRE (CLSI); assay type: cell-based; conditions: Enterococcus
Protocol: The NIH Clinical Collections 1 and 2 (http://www.nihclinicalcollection.com) containing 727 FDA approved drugs and small molecules previously used in human clinical trials with known safety profiles were screened against ESKAPE pathogens. The library was initially screened at a single concentration of 16 μM to identify “hit” non-antibacterial drugs. Once the antimicrobial activity of the drugs was confirmed, we determined their MICs and minimum bactericidal concentrations (MBCs) according to the Clinical and Laboratory Standards Institute (CLSI).

[7] = test system: E. faecium ATCC 700221 (VRE); experiment: MIC and MBC against E. faecium VRE (CLSI), Table 1; assay type: cell-based; conditions: Enterococcus faecium
MRSA USA200 = assay type: in vivo, BALB/c mice; conditions: EB 30 mg/kg or FdUrd 25 mg/kg once daily for three days, monitored six days
Protocol: Animal procedures were approved by the Purdue University Animal Care and Use Committee (PACUC) (protocol no. 1311000988). Eight-week-old female BALB/c mice (Harlan Laboratories, Indianapolis, Ind.) were used for this study. Mice were rendered neutropenic by treatment with cyclophosphamide intraperitoneally (IP) 150 and 100 mg/kg at four days and one day before infection, respectively. Neutropenic mice were inoculated IP with 8×10^8 MRSA USA200. At one hour after infection, the mice were divided into five groups (n=10 per group), and two groups were treated orally with either EB 30 mg/kg or FdUrd 25 mg/kg. Two groups were treated IP with either EB 30 mg/kg or FdUrd 25 mg/kg. One group was used as a control with no treatment. Treatment was continued once daily for two more days (animals received three doses total). Mortality was monitored four times daily for six days, and the cumulative percent survival was determined. The data were subjected to statistical analysis using Kaplan-Meier survival curves. A log rank test was performed for 95% confidence intervals by GraphPad Prism 6.0 (GraphPad Software, La Jolla, Calif.).

[8] = test system: K. pneumoniae ATCC BAA-1705; experiment: Library hits: MIC against K. pneumoniae; assay type: cell-based
[9] = test system: Methicillin-sensitive S. aureus (MSSA); experiment: MIC and MBC against methicillin-sensitive S. aureus isolates (CLSI); assay type: cell-based; conditions: Staphylococcus aureus; for MBC: read-out: MBC; for MIC: read-out: MIC
S. epidermidis NRS 101 = experiment: MIC and MBC against S. epidermidis (CLSI); assay type: cell-based; conditions: Staphylococcus epidermidis, NRS101
[10] = MRSA / NRS 119, NRS119 (resistant to linezolid)

O=c1[nH]c(=O)n([C@H]2C[C@H](O)[C@@H](CO)O2)cc1F [FdUrd, 5-fluoro-2′-deoxyuridine]
62.5 ng/mL: MBC ([1]; MRSA / NRS 194) | MIC [7]
0.975 ng/mL: MBC ([1]; MRSA / NRS 100) | MIC ([1]; MRSA / NRS 100) | MIC ([1]; MRSA / NRS 123) | MIC ([1]; MRSA / NRS 382) | MIC ([1]; MRSA / NRS 484, NRS 484) | MBC ([4]; VRSA3a) | MIC ([4]; VRSA3a) | MBC ([4]; VRSA8) | MIC ([4]; VRSA9) | MBC ([4]; VRSA10) | MIC ([4]; VRSA10) | MIC ([4]; VRSA11a) | MIC ([4]; VRSA11b) | MIC ([9]; MSSA / NRS 72)
100%: mice survival compared to that of control (MRSA USA200; IP)
3.9 ng/mL: MIC ([1]; MRSA / NRS 70) | MIC [1, 10] | MBC ([1]; MRSA / NRS 123) | MIC ([1]; MRSA / NRS 194) | MIC ([1]; MRSA / NRS 387, NRS 387) | MBC ([1]; MRSA / NRS 484, NRS 484) | MIC ([4]; VRSA2) | MBC ([4]; VRSA4) | MBC ([4]; VRSA7) | MBC ([4]; VRSA11b) | MBC ([4]; VRSA12) | MIC90 [5] | MBC ([9]; MSSA / NRS 846) | MIC ([9]; MSSA / NRS 846)
31.5 ng/mL: MBC ([1]; MRSA / NRS 385, NRS 385) | MIC ([1]; MRSA / NRS 385, NRS 385)
0.5 µM: MBC [3] | MBC (MRSA USA300; read-out: MBC)
< 0.5 µM: MIC ([3]; read-out: MIC) | MIC (MRSA USA300; read-out: MIC)
125 ng/mL: MBC [6] | MIC [6] | MBC [7]
3.15 ng/mL: MBC ([1]; MRSA / NRS 70)
8 µM: MIC/MBC [8]
7.8 ng/mL: MIC ([1]; MRSA / NRS 108) | MBC ([1]; MRSA / NRS 382) | MBC ([1]; MRSA / NRS 383) | MIC ([1]; MRSA / NRS 383) | MBC ([1]; MRSA / NRS 386, NRS 386) | MBC ([1]; MRSA / NRS 483, NRS 483) | MBC ([2]; NRS 37 / VISA) | MBC ([4]; VRSA1) | MIC ([4]; VRSA1) | MBC (S. epidermidis NRS 101) | MIC (S. epidermidis NRS 101)
15.6 ng/mL: MBC ([1]; MRSA / NRS 108) | MBC [1, 10] | MBC ([1]; MRSA / NRS 387, NRS 387) | MBC ([4]; VRSA2) | MBC ([4]; VRSA11a) | MBC ([4]; VRSA13)
60%: mice survival compared to that of control (MRSA USA200; oral)
1.95 ng/mL: MBC ([1]; MRSA / NRS 71) | MIC ([1]; MRSA / NRS 71) | MBC ([1]; MRSA / NRS 384, NRS 384) | MIC ([1]; MRSA / NRS 384, NRS 384) | MIC ([1]; MRSA / NRS 386, NRS 386) | MIC ([1]; MRSA / NRS 483, NRS 483) | MBC ([2]; NRS 1 / VISA, NRS 1) | MIC ([2]; NRS 1 / VISA, NRS 1) | MBC ([2]; NRS 19 / VISA) | MIC ([2]; NRS 37 / VISA) | MIC ([4]; VRSA4) | MBC ([4]; VRSA5) | MIC ([4]; VRSA5) | MBC ([4]; VRSA6) | MIC ([4]; VRSA7) | MBC ([4]; VRSA9) | MIC ([4]; VRSA12) | MIC ([4]; VRSA13) | MBC ([9]; MSSA / NRS 72) | MBC ([9]; MSSA / NRS 860) | MIC ([9]; MSSA / NRS 860)
0.49 ng/mL: MIC ([2]; NRS 19 / VISA) | MBC ([4]; VRSA3b) | MIC ([4]; VRSA3b) | MIC ([4]; VRSA6) | MIC ([4]; VRSA8) | MBC ([9]; MSSA / NRS 77) | MIC ([9]; MSSA / NRS 77)
